Experiment [1] has as its system BRCA-2 deficient CAPAN-1 human pancreatic cancer cells. As to the kind of experiment: MTT based cell viability assay: growth inhibition of BRCA-2 deficient CAPAN-1 cells. To be noted: 240 h, compound alone, 10 day assay. The source says:
Determination of the cell growth inhibiting activity of 1-(3-(4-(pyrimidin-2-yl)piperazine-1-carbonyl)benzyl)quinazoline-2,4(1H,3H)-dione and analogs on BRCA-2 deficient CAPAN-1 pancreatic duck cancer cells using a MTT based cell viability assay
BRCA-deficient cancer cells are sensitive to PARP inhibition. In the presence of PARP inhibitors, BRCA-deficient cancer cells could not grow and eventually will lead to death of cells. BRCA-2 deficient CAPAN-1 human pancreatic cancer cells were used to test the growth inhibiting activity of substituted 1-(arylmethyl)quinazoline-2,4(1H,3H)-diones. Briefly, CAPAN-1 cells are grown and maintained in IMEM medium supplemented with 20% FBS. The assay takes 10 days to finish. On day 1, 6000 CAPAN-1 cells are seeded to each well of a 96-well plate. The cells are incubated at 37° C. in a cell culture incubator overnight. In the next day, serial dilutions of compounds to be tested and reference compound (AZD2281) were prepared with a 1:3 and 1:10 fashion in DMSO. Ten-fold compound solutions were made by mixing 10 μl DMSO serial dilution solutions with 90 μl fresh growth medium. The cell culture medium was removed and 180 μl fresh media with FBS and 20 μl of compound solutions were added to each well. The final concentration of DMSO was 1%. Cells were then returned to the CO2 cell culture incubator and incubated at 37° C. for two days (day 3 and day 4). On day 5, the same procedure as what was done on day 2 was repeated. Cell culture medium was removed and fresh medium containing serial dilutions of compounds or reference compounds were added. Cells were returned to the CO2 cell culture incubator and incubated for two more days. On day 8, same procedure was repeated again and fresh medium containing the testing compounds or reference compounds were added and incubated for an additional 2 days. On day 10, 20 μl of MTT reagent (5 mg/ml) was added to each well of the cell culture plate and incubated for 4 h. The cell culture media was removed and 100 μl DMSO was added to each well. The 96-well cell culture plates were shaked horizontally for 10 min and readed in a Varioskan Flash plate reader (Thermo Fisher Scientific) at 520 and 690 nm. The obtained 520 nm absorbance readings subtracting corresponding 690 nm reading were analyzed using a commercial graphic software (GraphPad Prism 5) and plotted against the Log scale of the compound concentrations.

Experiment [2] relates to SW620 human colorectal cancer cells. As to the kind of experiment: MTT based cell viability assay: potentiation of the growth inhibiting activity of MMS. The conditions noted are these: Homo sapiens, SW-620, 120 h, read-out: IC50 (nM), potentiation of the growth inhibiting activity of MMS, SW620 cells, 1.7 μg/ml MMS, 5 days (120 hours), MTT.
The subject of experiment [3] is Human breast cancer cell line T47D. As to the kind of experiment: Cell based caspase-3 activity assay: potentiation of MMS induced apoptosis. To be noted: Homo sapiens, T47D, 24 h, T47D cells, 11.1 μg/ml MMS, 24 hours, intracellular caspase-3 activity; read-out: EC50 (nM), potentiation of the apoptosis inducing activity of MMS. In a few lines: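 T47D cells were exposed for 24 h to compound plus a minimally apoptotic MMS dose (medium containing 11.1 μg/ml MMS). Lysates were incubated 3 h at 37 °C with (Ac-DEVD)2-R110 caspase-3 substrate (20 μM in added buffer) and read at ex 496/em 520 nm. EC50 came from a sigmoidal fit of RFU versus log concentration.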

For `O=C(c1ccc(Br)cc1)N1CCN(C(=O)c2cccc(Cn3c(=O)[nH]c(=O)c4ccccc43)c2)CC1` [Example 11, 1-(3-(4-(4-Bromobenzoyl)piperazine-1-carbonyl)benzyl)quinazoline-2,4(1H,3H)-dione], the IC50 in experiment [1] stood at 1840 nM; in experiment [2] it was 618 nM. Moreover, the EC50 in experiment [3] came to 214 nM.

Regarding `O=C(c1cccc(Cn2c(=O)[nH]c(=O)c3ccccc32)c1)N1CCN(C(=O)C2CC2)CC1` [Example 15, 1-(3-(4-(Cyclopropylcarbonyl)piperazine-1-carbonyl)benzyl)quinazoline-2,4(1H,3H)-dione], the results for the IC50 in experiment [1] and in experiment [2] were above 10000 nM and 666 nM, respectively. Moreover, the EC50 in experiment [3] turned out to be 803 nM.

For the compound `O=C(c1cccc(Cn2c(=O)[nH]c(=O)c3ccccc32)c1)N1CCN(c2cnccn2)CC1` [Example 20, 1-(3-(4-(Pyrazin-2-yl)piperazine-1-carbonyl)benzyl)quinazoline-2,4(1H,3H)-dione], the IC50 in experiment [1] is 4940 nM; in experiment [2] it was 391 nM. The EC50 in experiment [3] came to 139 nM.

As to `O=C(c1cc(Cn2c(=O)[nH]c(=O)c3ccccc32)ccc1F)N1CCN(C(=O)C2CCCC2)CC1` [Example 23, 1-(3-(4-(Cyclopentylcarbonyl)piperazine-1-carbonyl)-4-fluorobenzyl)quinazoline-2,4(1H,3H)-dione], the IC50 is 160 nM in experiment [1] and 8.2 nM in experiment [2]. In experiment [3], the EC50 came out at 4 nM.

With `O=C(c1cc(Cn2c(=O)[nH]c(=O)c3ccccc32)ccc1F)N1CCN(c2ccccn2)CC1` [Example 24, 1-(4-Fluoro-3-(4-(pyridin-2-yl)piperazine-1-carbonyl)benzyl)quinazoline-2,4(1H,3H)-dione], the IC50 in experiment [1] turned out to be 735 nM; in experiment [2], 26 nM. The EC50 in experiment [3] was 20 nM.

`O=C(c1cccc(Cn2c(=O)[nH]c(=O)c3ccccc32)c1)N1CCN(C(=O)C2CCCCC2)CC1` [Example 26, 1-(3-(4-(Cyclohexylcarbonyl)piperazine-1-carbonyl)benzyl)quinazoline-2,4(1H,3H)-dione]: the IC50 amounted to 400 nM in experiment [1] and 149 nM in experiment [2]. In addition, the EC50 in experiment [3] came out at 20 nM.

`O=C(c1cccc(Cn2c(=O)[nH]c(=O)c3ccccc32)c1)N1CCN(c2nsc3ccccc23)CC1` [Example 27, 1-(3-(4-(Benzo[d]isothiazol-3-yl)piperazine-1-carbonyl)benzyl)quinazoline-2,4(1H,3H)-dione]: the IC50 in experiment [1] stood at 281 nM; in experiment [2], 83 nM. The EC50 in experiment [3] was 51 nM.

`O=C(c1cccc(Cn2c(=O)[nH]c(=O)c3ccccc32)c1)N1CCN(C(=O)C2CCC2)CC1` [Example 30, 1-(3-(4-(Cyclobutylcarbonyl)piperazine-1-carbonyl)benzyl)quinazoline-2,4(1H,3H)-dione]: the IC50 in experiment [1] was 1780 nM; in experiment [2], 119 nM. For the same compound, in experiment [3], the EC50 turned out to be 39 nM.

`O=C(c1cc(Cn2c(=O)[nH]c(=O)c3ccccc32)ccc1F)N1CCN(C(=O)C2CC2)CC1` [Example 40, 1-(3-(4-(Cyclopropylcarbonyl)piperazine-1-carbonyl)-4-fluorobenzyl)quinazoline-2,4(1H,3H)-dione]: the IC50 in experiment [1] worked out at 1740 nM; in experiment [2], 182 nM. For the same compound, the EC50 in experiment [3] is 29 nM.

On to `O=C(c1cc(Cn2c(=O)[nH]c(=O)c3ccccc32)ccc1F)N1CCN(C(=O)C2CCCCC2)CC1` [Example 41, 1-(3-(4-(Cyclohexylcarbonyl)piperazine-1-carbonyl)-4-fluorobenzyl)quinazoline-2,4(1H,3H)-dione], for which the IC50 in experiment [1] worked out at 208 nM; in experiment [2], 11 nM. For the same compound, the EC50 in experiment [3] came to 2.2 nM.

With `O=C(c1cc(Cn2c(=O)[nH]c(=O)c3ccccc32)ccc1F)N1CCN(c2cnccn2)CC1` [Example 42, 1-(4-Fluoro-3-(4-(pyrazin-2-yl)piperazine-1-carbonyl)benzyl)quinazoline-2,4(1H,3H)-dione], the IC50 was found to be 2540 nM in experiment [1] and 78 nM in experiment [2]. The EC50 in experiment [3] worked out at 11 nM.

Consider `O=C(c1cc(Cn2c(=O)[nH]c(=O)c3ccccc32)ccc1F)N1CCN(c2nsc3ccccc23)CC1` [Example 43, 1-(3-(4-(Benzo[d]isothiazol-3-yl)piperazine-1-carbonyl)-4-fluorobenzyl)quinazoline-2,4(1H,3H)-dione], for which the IC50 was found to be 974 nM in experiment [1] and 51 nM in experiment [2]. Moreover, the EC50 in experiment [3] turned out to be 18 nM.

Take `O=C(c1ccccc1)N1CCN(C(=O)c2cc(Cn3c(=O)[nH]c(=O)c4ccccc43)ccc2F)CC1` [Example 45, 1-(3-(4-Benzoylpiperazine-1-carbonyl)-4-fluorobenzyl)quinazoline-2,4(1H,3H)-dione]: the IC50 in experiment [1] is 668 nM; in experiment [2], 34 nM. The EC50 in experiment [3] came out at 11 nM.

As for `O=C(c1cccs1)N1CCN(C(=O)c2cc(Cn3c(=O)[nH]c(=O)c4ccccc43)ccc2F)CC1` [Example 46, 1-(4-Fluoro-3-(4-(thiophene-2-carbonyl)piperazine-1-carbonyl)benzyl)quinazoline-2,4(1H,3H)-dione], the values for the IC50 in experiment [1] and in experiment [2] were 446 nM and 21 nM, respectively. In experiment [3], the EC50 worked out at 6.6 nM.

Consider `O=C(c1ccc(F)c(Cn2c(=O)[nH]c(=O)c3ccccc32)c1)N1CCN(C(=O)C2CCCC2)CC1` [Example 48, 1-(3-(4-(Cyclopentylcarbonyl)piperazine-1-carbonyl)-6-fluorobenzyl)quinazoline-2,4(1H,3H)-dione], for which the IC50 came out at 168 nM in experiment [1] and 56 nM in experiment [2]. For the same compound, the EC50 in experiment [3] came to 8.2 nM.

In the case of `O=C(c1ccc(F)c(Cn2c(=O)[nH]c(=O)c3ccccc32)c1)N1CCN(C(=O)C2CCCCC2)CC1` [Example 49, 1-(3-(4-(Cyclohexylcarbonyl)piperazine-1-carbonyl)-6-fluorobenzyl)quinazoline-2,4(1H,3H)-dione], the IC50 in experiment [1] came to 421 nM; in experiment [2] it was 32 nM. Besides, in experiment [3], the EC50 is 10 nM.

As for `O=C(c1ccc(F)c(Cn2c(=O)[nH]c(=O)c3ccccc32)c1)N1CCN(c2ncccn2)CC1` [Example 50, 1-(6-Fluoro-3-(4-(pyrimidin-2-yl)piperazine-1-carbonyl)benzyl)quinazoline-2,4(1H,3H)-dione], the figures for the IC50 in experiment [1] and in experiment [2] were 173 nM and 37 nM, respectively. Besides, the EC50 in experiment [3] came to 13 nM.

As to `O=C(c1ccc(F)c(Cn2c(=O)[nH]c(=O)c3ccccc32)c1)N1CCN(c2ccccn2)CC1` [Example 51, 1-(6-Fluoro-3-(4-(pyridin-2-yl)piperazine-1-carbonyl)benzyl)quinazoline-2,4(1H,3H)-dione], the IC50 in experiment [1] was 402 nM; in experiment [2], 33 nM. Besides, the EC50 in experiment [3] was 20 nM.

As for `O=C(c1ccc(Cl)c(Cn2c(=O)[nH]c(=O)c3ccccc32)c1)N1CCN(c2ncccn2)CC1` [Example 56, 1-(6-Chloro-3-(4-(pyrimidin-2-yl)piperazine-1-carbonyl)benzyl)quinazoline-2,4(1H,3H)-dione], the IC50 in experiment [1] was determined as 1180 nM; in experiment [2] it was 30 nM. Also, the EC50 in experiment [3] stood at 16 nM.

As for `O=C(c1cc(Cn2c(=O)[nH]c(=O)c3ccccc32)ccc1Cl)N1CCN(c2ncccn2)CC1` [Example 65, 1-(4-Chloro-3-(4-(pyrimidin-2-yl)piperazine-1-carbonyl)benzyl)quinazoline-2,4(1H,3H)-dione], the IC50 is 3190 nM in experiment [1] and 417 nM in experiment [2]. The EC50 in experiment [3] is 373 nM.

For `O=C(c1cccc(Cn2c(=O)[nH]c(=O)c3ccccc32)n1)N1CCN(C(=O)C2CCCC2)CC1` [Example 69, 1-((2-(4-(Cyclopentylcarbonyl)piperazine-1-carbonyl)pyridin-6-yl)methyl)quinazoline-2,4(1H,3H)-dione], the IC50 in experiment [1] came out at 1980 nM; in experiment [2] it was 352 nM. For the same compound, the EC50 in experiment [3] amounted to 76 nM.

As to `O=C(c1cc(Cn2c(=O)[nH]c(=O)c3ccccc32)ccc1F)N1CCN(c2nccs2)CC1` [Example 190, 1-(4-Fluoro-3-(4-(thiazol-2-yl)piperazine-1-carbonyl)benzyl)quinazoline-2,4(1H,3H)-dione], the IC50 was found to be 1380 nM in experiment [1] and 21 nM in experiment [2].

One may read the EC50 as the concentration that produces a half-maximal response.

The values are drawn from patent US9926304B2, “1-(arylmethyl)quinazoline-2,4(1H,3H)-diones as PARP inhibitors and the use thereof” (Impact Therapeutics, Inc., priority 2011, dated 2018).
